The NIST ThermoML archive (doi:10.1016/j.jct.2017.03.032)

Experiment: wn = mass fraction of the nth substance listed
Details: Gas, Burnett expansion method

F/C=C/C(F)(F)F [trans-1,3,3,3-tetrafluoropropene] + CC(C)C
Details	mass density [kg/m3]
315.14 K, 227.3 kPa, w1 = 0.65	7.7977
315.14 K, 297.2 kPa, w1 = 0.65	10.348
315.14 K, 301.4 kPa, w1 = 0.75	11.3213
315.14 K, 386 kPa, w1 = 0.65	13.7325
315.14 K, 392.5 kPa, w1 = 0.75	15.0241
315.14 K, 497.8 kPa, w1 = 0.65	18.2238
315.14 K, 506.8 kPa, w1 = 0.75	19.9379
315.14 K, 642.7 kPa, w1 = 0.75	26.4588
315.15 K, 173.5 kPa, w1 = 0.65	5.8759
315.15 K, 173.8 kPa, w1 = 0.7	6.1345
315.15 K, 175.6 kPa, w1 = 0.75	6.4285
315.15 K, 190.1 kPa, w1 = 0.85	7.5778
315.15 K, 229.1 kPa, w1 = 0.7	8.1409
315.15 K, 230.4 kPa, w1 = 0.75	8.531
315.15 K, 249.3 kPa, w1 = 0.85	10.0562
315.15 K, 299.1 kPa, w1 = 0.7	10.8034
315.15 K, 325.7 kPa, w1 = 0.85	13.3452
315.15 K, 390.1 kPa, w1 = 0.7	14.3368
315.15 K, 422.3 kPa, w1 = 0.85	17.7101
315.15 K, 497.7 kPa, w1 = 0.7	19.0258
315.15 K, 539.7 kPa, w1 = 0.85	23.5026
315.16 K, 185.3 kPa, w1 = 0.8	7.0584
315.16 K, 317.7 kPa, w1 = 0.8	12.4305
315.16 K, 333.2 kPa, w1 = 0.9	14.2331
315.16 K, 412.2 kPa, w1 = 0.8	16.4962
315.16 K, 529.7 kPa, w1 = 0.8	21.8918
315.17 K, 148.1 kPa, w1 = 0.9	6.0901
315.17 K, 194.6 kPa, w1 = 0.9	8.0819
315.17 K, 243 kPa, w1 = 0.8	9.3669
315.17 K, 255.2 kPa, w1 = 0.9	10.7253
315.17 K, 432.8 kPa, w1 = 0.9	18.8881
315.17 K, 551.9 kPa, w1 = 0.9	25.0657
320.12 K, 779.8 kPa, w1 = 0.8	33.8752
320.13 K, 286 kPa, w1 = 0.8	10.922
320.13 K, 373.2 kPa, w1 = 0.8	14.4942
320.13 K, 483.3 kPa, w1 = 0.8	19.2347
320.13 K, 616.7 kPa, w1 = 0.8	25.5259
320.14 K, 165.2 kPa, w1 = 0.8	6.2018
320.14 K, 168.8 kPa, w1 = 0.9	6.8698
320.14 K, 218.3 kPa, w1 = 0.8	8.2301
320.14 K, 221.7 kPa, w1 = 0.9	9.1166
320.14 K, 290.4 kPa, w1 = 0.9	12.0982
320.14 K, 378.8 kPa, w1 = 0.9	16.0551
320.14 K, 491 kPa, w1 = 0.9	21.3061
320.14 K, 621.3 kPa, w1 = 0.9	28.2744
320.15 K, 148.8 kPa, w1 = 0.7	5.1243
320.15 K, 195.8 kPa, w1 = 0.7	6.8002
320.15 K, 256.8 kPa, w1 = 0.7	9.0242
320.15 K, 335.6 kPa, w1 = 0.7	11.9756
320.15 K, 340.3 kPa, w1 = 0.65	11.7766
320.15 K, 435.2 kPa, w1 = 0.7	15.8926
320.15 K, 441.3 kPa, w1 = 0.65	15.6283
320.15 K, 556 kPa, w1 = 0.7	21.0901
320.15 K, 569.2 kPa, w1 = 0.65	20.7395
320.16 K, 152 kPa, w1 = 0.65	5.039
320.16 K, 154 kPa, w1 = 0.75	5.5344
320.16 K, 199.9 kPa, w1 = 0.65	6.687
320.16 K, 262 kPa, w1 = 0.65	8.8741
320.16 K, 266.1 kPa, w1 = 0.75	9.7466
320.16 K, 347.7 kPa, w1 = 0.75	12.9343
320.16 K, 577.4 kPa, w1 = 0.75	22.7785
320.16 K, 730.8 kPa, w1 = 0.75	30.2287
320.17 K, 203 kPa, w1 = 0.75	7.3444
320.17 K, 451.9 kPa, w1 = 0.75	17.1645
320.19 K, 162.2 kPa, w1 = 0.85	6.3277
320.19 K, 214.1 kPa, w1 = 0.85	8.3973
320.19 K, 279.4 kPa, w1 = 0.85	11.1439
320.19 K, 364.7 kPa, w1 = 0.85	14.7884
320.19 K, 472.3 kPa, w1 = 0.85	19.6252
320.19 K, 605 kPa, w1 = 0.85	26.0438
320.19 K, 764.8 kPa, w1 = 0.85	34.5619
325.1 K, 181 kPa, w1 = 0.85	6.9723
325.1 K, 219.4 kPa, w1 = 0.75	7.845
325.1 K, 287.7 kPa, w1 = 0.75	10.4108
325.1 K, 311.6 kPa, w1 = 0.85	12.2787
325.1 K, 374.7 kPa, w1 = 0.75	13.8158
325.1 K, 406.4 kPa, w1 = 0.85	16.2947
325.1 K, 488 kPa, w1 = 0.75	18.3343
325.1 K, 523.6 kPa, w1 = 0.85	21.624
325.1 K, 621.5 kPa, w1 = 0.75	24.3306
325.1 K, 668.2 kPa, w1 = 0.85	28.6964
325.1 K, 786.7 kPa, w1 = 0.75	32.2887
325.1 K, 844.6 kPa, w1 = 0.85	38.0818
325.11 K, 166.4 kPa, w1 = 0.7	5.6568
325.11 K, 167.1 kPa, w1 = 0.75	5.9115
325.11 K, 218.6 kPa, w1 = 0.7	7.5069
325.11 K, 237.8 kPa, w1 = 0.85	9.2525
325.11 K, 286.7 kPa, w1 = 0.7	9.9621
325.11 K, 373.4 kPa, w1 = 0.7	13.2204
325.11 K, 483.2 kPa, w1 = 0.7	17.5443
325.11 K, 617.3 kPa, w1 = 0.7	23.2823
325.13 K, 167.9 kPa, w1 = 0.65	5.518
325.13 K, 220.6 kPa, w1 = 0.65	7.3227
325.13 K, 289.1 kPa, w1 = 0.65	9.7176
325.13 K, 377.5 kPa, w1 = 0.65	12.8959
325.13 K, 484.7 kPa, w1 = 0.65	17.1136
325.13 K, 619.9 kPa, w1 = 0.65	22.7108
325.17 K, 238.4 kPa, w1 = 0.8	8.8968
325.17 K, 312.1 kPa, w1 = 0.8	11.8066
325.17 K, 407 kPa, w1 = 0.8	15.6681
325.17 K, 526.5 kPa, w1 = 0.8	20.7926
325.17 K, 669 kPa, w1 = 0.8	27.593
325.17 K, 846.3 kPa, w1 = 0.8	36.6175
325.18 K, 181.5 kPa, w1 = 0.8	6.704
325.18 K, 192.3 kPa, w1 = 0.9	7.7424
325.18 K, 252.4 kPa, w1 = 0.9	10.2747
325.18 K, 330.4 kPa, w1 = 0.9	13.6351
325.18 K, 430.4 kPa, w1 = 0.9	18.0945
325.18 K, 549.6 kPa, w1 = 0.9	24.0125
325.18 K, 703.2 kPa, w1 = 0.9	31.8661
330.12 K, 156.9 kPa, w1 = 0.75	5.446
330.12 K, 205.5 kPa, w1 = 0.75	7.2271
330.12 K, 271 kPa, w1 = 0.75	9.5908
330.12 K, 354.5 kPa, w1 = 0.75	12.7274
330.12 K, 457.3 kPa, w1 = 0.75	16.8904
330.12 K, 588.2 kPa, w1 = 0.75	22.4145
330.12 K, 750 kPa, w1 = 0.75	29.7454
330.12 K, 945.5 kPa, w1 = 0.75	39.4741
330.12 K, 981.5 kPa, w1 = 0.85	44.7652
330.13 K, 163.7 kPa, w1 = 0.85	6.1759
330.13 K, 215.1 kPa, w1 = 0.85	8.1958
330.13 K, 282.7 kPa, w1 = 0.85	10.876
330.13 K, 369.7 kPa, w1 = 0.85	14.4335
330.13 K, 612.7 kPa, w1 = 0.85	25.4187
330.13 K, 779.3 kPa, w1 = 0.85	33.7323
330.14 K, 476.1 kPa, w1 = 0.85	19.1537
330.2 K, 440.7 kPa, w1 = 0.7	15.4891
330.2 K, 559.7 kPa, w1 = 0.7	20.5552
330.2 K, 717.8 kPa, w1 = 0.7	27.2782
330.21 K, 338.1 kPa, w1 = 0.7	11.6715
330.21 K, 929.7 kPa, w1 = 0.9	43.8273
330.22 K, 153.7 kPa, w1 = 0.9	6.0465
330.22 K, 202.2 kPa, w1 = 0.9	8.024
330.22 K, 258.3 kPa, w1 = 0.7	8.7948
330.22 K, 265.5 kPa, w1 = 0.9	10.6483
330.22 K, 347.5 kPa, w1 = 0.9	14.131
330.22 K, 452.8 kPa, w1 = 0.9	18.7526
330.22 K, 576.5 kPa, w1 = 0.9	24.8861
330.22 K, 735.5 kPa, w1 = 0.9	33.0255
330.23 K, 145.4 kPa, w1 = 0.65	4.6896
330.23 K, 149.5 kPa, w1 = 0.7	4.9937
330.23 K, 192.1 kPa, w1 = 0.65	6.2233
330.23 K, 252.5 kPa, w1 = 0.65	8.2587
330.23 K, 272.1 kPa, w1 = 0.8	10.0277
330.23 K, 354.3 kPa, w1 = 0.8	13.3074
330.23 K, 463.4 kPa, w1 = 0.8	17.6597
330.23 K, 754.4 kPa, w1 = 0.8	31.1003
330.23 K, 951.7 kPa, w1 = 0.8	41.2719
330.24 K, 157.7 kPa, w1 = 0.8	5.6939
330.24 K, 196.7 kPa, w1 = 0.7	6.6269
330.24 K, 207.3 kPa, w1 = 0.8	7.5562
330.24 K, 330.6 kPa, w1 = 0.65	10.9596
330.24 K, 431.5 kPa, w1 = 0.65	14.544
330.24 K, 590.5 kPa, w1 = 0.8	23.435
330.24 K, 702.3 kPa, w1 = 0.65	25.6134
330.25 K, 548.5 kPa, w1 = 0.65	19.3004
